Results on 4 compounds are retold here after patent US4031218A, “7-(2,3-Dihydroxypropyl-1,3-di-n-propylxanthine and a pharmaceutical composition containing same useful as a bronchial muscle relaxant” (Mallinckrodt, Inc., priority 1976, dated 1977).

Each structure is given as a SMILES string. Converted amounts (≈) assume the structure as drawn.

The conditions of data set [1]: Kattus et al. 1951; cited from earlier work.
Data set [2] concerns dogs. The following applies: dog, in vivo, iv.
Protocol: Acute Intravenous Evaluation in Dogs
Compounds were tested in two dogs each. Animals were initially hydrated with 30 ml/kg of water, orally; then anesthetized with pentobarbital sodium, 30-35 mg/kg i.v. One femoral vein was cannulated and a constant intravenous infusion of warm saline (3 ml/min.) was begun and continued throughout the experiment. The contralateral femoral vein was also cannulated for intravenous drug administration. Urine was directly collected from bilateral ureter cannulae. After a 20-minute control collection period, the first dose of the appropriate compound was injected and urine was collected at 20-minute intervals for a period of one hour. This procedure was repeated for two additional doses of the same compound. Urine volume, pH, and sodium and potassium levels were determined for each 20-minute collection period and sums were obtained for the one-hour period after each dose. Test results, reported as successive changes in each parameter, were compared accordingly.
For data set [3] the following is noted: prior art statement; cited from earlier work.
A short description of data set [4]: Summary of relative molar activities (means and therapeutic efficacy). Particulars: mean bronchodilator (therapeutic) activity divided by mean acute toxic and side effect activity.
Description: ^g - Mean bronchodilator (therapeutic) activity divided by mean acute
The subject of data set [5] is dogs. The experiment in a line: Oral minimum emetic dose in dogs. The format is in vivo, dog. As to the method: 2. Oral Minimum Emetic Dose
The minimum dose of each compound which causes emesis after oral administration was estimated in a group of five adult mongrel dogs of either sex. Logarithmically increasing or decreasing (depending upon response) doses of each compound were administered orally via a flexible stomach tube. The compounds were dissolved in distilled water in concentrations to allow a constant volume dose of 5 ml/kg. […] Onset, frequency, and duration of emetic episodes as well as signs of CNS stimulation were also recorded.

Data set [6] relates to dogs. In words: Intravenous emetic study in dogs (ED50). The format is in vivo, dog. Particulars: estimated at HBD. Here is the method: (§1) Twelve adult mongrel dogs of either sex were employed to determine the median emetic dose (ED50) of all five experimental compounds after intravenous administration. […] Onset, frequency, and duration of emetic episodes were also recorded. The dogs were not fasted, were allowed at least 2 days rest between doses, and no animal received the same compound twice in succession. […] ED50 values were calculated according to the method of Litchfield and Wilcoxon (1949).

A short description of data set [7]: Intravenous emetic study in dogs (ED50). The format is in vivo, dog. The following applies: dog, in vivo, iv; read-out: ED50 (median emetic dose), I.V. Dogs. As to the method:
as §1

In data set [8] the test system is dogs. The following applies: dog, in vivo, iv. The source holds these as a separate data set.
Protocol: Intravenous Cardiovascular Evaluation in Dogs
Thirteen adult mongrel dogs of either sex ranging in weight from 16.7 to 25.0 kg were employed to compare the overall intravenous cardiovascular activity of the five experimental compounds.
Dogs were anesthetized with pentobarbital sodium, 30-35 mg/kg i.v., fitted with a cuffed endotracheal tube, and ventilated with a Harvard Animal Respiratory Pump. A femoral vein was cannulated for i.v. drug administration. The left common carotid artery was cannulated and the cannula tip advanced into the aortic arch. A median sternotomy was performed and appropriately sized electromagnetic blood flow transducers (Biotronex) were placed around the ascending aorta and left anterior descending coronary artery. These procedures allowed continuous recording or calculation of the following parameters:
a. Mean Arterial Pressure (MAP); from the aortic cannula.
b. Heart Rate (HR); electronically from pulsatile ascending aortic flow.
c. Cardiac Output (CO); mean ascending aortic flow.
d. Myocardial Contractile Force (MCF); dQ/dt, the first derivative of maximum aortic flow rate, also known as peak aortic flow acceleration.
e. Stroke Volume (SV); quotient of CO/HR.
f. Cardiac Work (CW); product of CO X MAP.
g. Total Peripheral Resistance (TPR); quotient of MAP/CO.
h. Coronary Flow (CF); mean left anterior descending (LAD) coronary flow.
i. Coronary Resistance (CR); quotient of MAP/CF.
Logarithmically increasing doses of the appropriate compound were injected at 20-minute intervals. Responses were measured at 1, 2, 5, 10, 15 and 20 minutes after each dose and the average response during that period was calculated. Theophylline (aminophylline), dyphylline (II), and Compound V were employed in both 20 and 80 mg/ml concentrations in distilled water. Compounds III and IV were used in 10 and 30 mg/ml concentrations respectively.
Data set [9] can be described thus: Solubility.
Data set [10] relates to human bronchodilator. In words: Estimated human bronchodilator dose equivalent to recommended theophylline dose. The following applies: based on recommended theophylline dose and relative bronchodilator activities. The source says:
Experimental results are summarized in Table I wherein pharmacologic and toxicologic activities relative to that of theophylline are expressed on a molar basis.
^a - Dose: Based on the recommended dose for theophylline and the
relative activities in the bronchodilator experiments.

Regarding `CCCn1c(=O)c2[nH]cnc2n(CCC)c1=O` [1,3-dipropyl, 1,3-dipropyl xanthine], the “Diuretic and emetic properties in words (prior art)” value (“Diuretic and emetic properties” below) in data set [1] is recorded as “extremely potent”.
Consider `Cn1c(=O)c2[nH]cnc2n(C)c1=O` [Compound I, 1,3-dimethylxanthine], for which the “Diuretic Activity, I.V. Dogs” value in [2] was “Mild”. In data set [3], the “Water solubility in words (prior art)” value is “lack of water solubility”. Also, the “Therapeutic Efficacy” value in data set [4] is listed as 1.00. For the same compound, in [5], the “MED (minimum emetic dose), P.O. Dogs” value is 128 mg/kg. Also, the “Emetic effect, P.O. Dogs” value in data set [5] (estimated at HBD) was “None”. Also, in data set [6], the “Emetic effect, I.V. Dogs” value is “None”. Further, the ED50 in data set [7] came out at 58 mg/kg. In data set [8], the “CF (coronary flow) change” value is listed as “+21 %Δ”, the “CO (cardiac output) change” value is “+7 %Δ”, the “CW (cardiac work) change” value was -5 %Δ and the “Cardiovascular effects (Mean)” value stood at 12. In data set [8], the “HR (heart rate) change” value is reported as “+11 ΔBPM”, the “MAP (mean arterial pressure) change” value is listed as -12 ΔmmHg, the “MCF (myocardial contractile force) change” value is “+17 %Δ” and the “TPR (total peripheral resistance) change” value is recorded as -12 %Δ. The compound also came in with a solubility in data set [9] (water) of 8000 µg/mL (≈ 44.4 mM). Moreover, the Solubility in words entry in [9] (water solubility, qualitative) is recorded as “poor solubility”. In [10], the “Estimated Human Bronchodilator Dose (HBD), per 70 kg” value is 200 mg/70 kg and the “Estimated Human Bronchodilator Dose (HBD), per kg” value is listed as 2.9 mg/kg.
For `CCCCn1c(=O)c2[nH]cnc2n(CCCC)c1=O` [1,3-dibutyl xanthine], the “Diuretic and emetic properties” value in data set [1] is on record as “extremely potent”.
Turning to `CCn1c(=O)c2[nH]cnc2n(CC)c1=O` [1,3-diethyl, 1,3-diethyl xanthine], the “Diuretic and emetic properties” value in data set [1] is listed as “extremely potent”.

The ED50 is the dose at which the effect has come halfway, by size or by number of responders. One may read the solubility as the concentration that dissolves in the medium under given conditions. Higher therefore signals a readily soluble substance.
